Results on three molecules are retold here after US10035816B2, “Compound for treating respiratory syncytial virus infection and preparation method and use thereof” (SHANDONG UNIVERSITY, priority 2016, dated 2018).

Holding throughout (format): cell-based
Test [1] relates to RSV replication and Hh activity. The experiment in a line: Coefficient of inhibition (ICrh): RSV replication inhibition vs. Hh pathway inhibition relative to CPM. Particulars: ratio of RSV inhibition to Hh inhibition of the analog divided by the same ratio of CPM; >1 favorable (FIG. 6). An excerpt:
To assess the differential Hh pathway inhibition vs. replication inhibition of analogs (cpd), we determined a coefficient of inhibition (ICrh).
A score higher than 1 indicates a favorable profile.
The substep of screening compounds is that selecting the compounds with ICrh data larger than 1, and filtering out the compounds with ICrh data smaller than 1. Furthermore, the compounds with larger ICrh data will be selected preferentially.

The test system of test [2] is Human respiratory syncytial virus Long strain. The experiment in a line: RSV replication assay (virus yield / focus titration in HEp-2 cells). Particulars: for maximum inhibition effect on RSV replication: compounds tested at 2 ìM and 8 ìM, HEp-2 cells, MOI 0.1, compared with blank control (FIG. 4).
Method: The detection procedure of compound effect on RSV replication inhibiting is as following. Human respiratory syncytial virus Long strain and HEp-2 cells were used for infection assays. Cells were maintained in DMEM, supplemented with penicillin/streptomycin and 10% FBS, and incubated at 37° C., 5% CO2. Virus was passaged in HEp-2 cells in the same conditions, but with 2% FBS. Virus stocks were prepared by infecting confluent HEp-2 cells at a low multiplicity of infection (MOI) of 0.1 for two to three days. Cells and virus-containing supernatant were then subjected to a single freeze/thaw cycle at −80° C. to release cell-bound virus, and the sample was clarified by centrifugation at 2000×g for 10 min at 4° C. The supernatant was homogenized, aliquoted and stored at −20° C.
Compounds were tested either during virus adsorption for 1 h at 4° C. to investigate viral entry, post-adsorption for 72 h at 37° C. to investigate viral propagation and replication, or during all stages of infection. The concentration of compound resulting in 50% inhibition (IC50) of virus replication was determined by focus counting (viral entry) or focus size measurement (viral propagation) and was determined using non-linear regression analysis using GraphPad Prism. To assess the cytotoxicity of compounds, a CellTiter-Glo Luminescent Cell Viability Assay was carried following the manufacturer's instruction in the conditions of the focus reduction assay.
As shown in the figure, compounds were tested at 2 concentrations (2 ìM, 8 ìM) in the RSV replication assay. The control (compound-free) is scored at 100% replication.
Human respiratory syncytial virus Long strain (ATCC reference VR-26) and HEp-2 cells (ATCC reference CCL-23) were used for infection assays. Cells were maintained in DMEM, supplemented with penicillin/streptomycin and 10% FBS, and incubated at 37° C., 5% CO2. Virus was passaged in HEp-2 cells in the same conditions, but with 2% FBS. Virus stocks were prepared by infecting confluent HEp-2 cells at a low multiplicity of infection (MOI) of 0.1 for two to three days. […]
In test [3] the test system is Smo-dependent SAG induced gene expression (Hh signal pathway). The experiment in a line: Hedgehog (Hh) signal pathway inhibition assay, Gli-binding site-luciferase reporter in NIH3T3 cells. Particulars: compound 10 uM, SAG 0.5 ìM, control (compound-free, presence of SAG) = 100% gene expression (FIG. 5).
Method: The detection procedure of compound effect on Hh signal pathway inhibiting is as following. NIH3T3 cells are seeded cells in 6 well plates, or 12 well plate one day in advance, with 5% FBS DMEM, without antibiotics per well so that they will be 90˜95% confluent at the time of transfection. Plasmids are diluted with Lipofectamine 2000 (total volume is 100-1000 ìl) and added to each well containing cells and medium, followed by incubation at 37° C. in a CO2 incubator for 48 h. […] At the end of the incubation, cells are washed, lysed and lysate transferred to a 96-well white plate. LAR II reagent is added (from Promega, Dual-luciferase reporter assay system) and samples read in a luminescence reader.
The control (compound-free, presence of SAG) is scored at 100% gene expression.

In the case of `CCNC(=O)O[C@H]1CC[C@@]2(C)C(=CC[C@H]3[C@@H]4CC[C@]5(O[C@@H]6C[C@H](C)CN(C(=O)C(F)(F)F)[C@H]6[C@H]5C)C(C)=C4C[C@@H]32)C1` [S1-2], the “coefficient of inhibition on RSV replication and Hh activity (ICrh)” value in test [1] is 1.446. Moreover, in test [2], the “maximum inhibition effect on RSV replication” value stood at 99%. In test [3], the “inhibition of SAG-induced gene expression” value is recorded as 36%.

For `CC1=C2C[C@H]3[C@@H](CC=C4C[C@@H](OC(=O)NC5CC5)CC[C@@]43C)[C@@H]2CC[C@]12O[C@@H]1C[C@H](C)CN(C(=O)C(F)(F)F)[C@H]1[C@H]2C` [S1-4], the “coefficient of inhibition on RSV replication and Hh activity (ICrh)” value in test [1] was 1.617. The “maximum inhibition effect on RSV replication” value in test [2] worked out at 88%. Further, the “inhibition of SAG-induced gene expression” value in test [3] amounted to 5%.

In the case of cyclopamine [CPM, reference compound], in test [2] (compound-free control scored at 100% replication (FIG. 4)), the “RSV replication in the presence of compound” value was found to be 0%. Also, the “inhibition of SAG-induced gene expression” value in test [3] was determined as 56%.
